Data set [1] deals with G4 sequences on custom G4 microarray. The data set is described as follows: G4 microarray competition of unlabeled molecule with Cy5-PDS. The data set is classed as binding, human. From the text:
Whether the microarray platform could be used to reveal the G4-binding specificity of unlabeled molecules via a competition with Cy5-PDS binding was explored. Three example molecules, unlabeled PDS, TMPyP4 (a planar molecule that nonspecifically binds G4 structures^14), and DC-34 (a molecule that selectively binds the MYC G4^15) were examined. […] The binding of unlabeled DC-34 was examined (FIG. 4). There appear to be no features that are better-bound in the presence of DC-34. […] This is consistent with the observation that DC-34 binds the top and bottom surfaces of the G4 and makes specific contacts with purines in the tail sequences.^15 The general properties of features in which DC-34 reduced binding of Cy5-PDS (ratio of PDS/PDS+DC-34) were also examined.
(§1) Microarrays were preincubated with a 100 mM potassium chloride solution for 1 h at RT to induce G4 formation. Protein binding microarray experiments were then performed as previously described.^23 Microarrays were blocked with 4% nonfat dry milk in a potassium phosphate buffer before incubation with proteins or small molecules. Expressed proteins were blocked with 4% nonfat dry milk, ssDNA, and BSA. For the validation experiments, microarrays were also treated with 100 mM lithium chloride to inhibit G4 formation. For experiments examining dsDNA, single-stranded DNA probes were made double-stranded using a primer complementary to a 24-mer constant sequence following the method described previously.^23,24 Double stranding efficiency was monitored using 4% Cy3-dCTP.
Protein or molecule-bound microarrays were scanned with the G5761A SureScan Dx Microarray Scanner System (Agilent) to detect a Cy5 signal at two laser settings (30 and 100 PMT) to ensure signal intensities were below saturation. Spot intensities from microarray images were extracted using the Agilent Feature Extraction Software and are reported as raw fluorescence units. All binding assays were performed at least twice, with high agreement between replicates (R>0.8). Microarrays with the fewest number of saturated spots were used for further analysis. […] The measured array data (Design 3, PDS) and predictions were normalized using the following
Custom G4 microarrays have been designed that contain a total of 19,249 G4 DNA sequences [31, the entirety of disclosure of which, including the supplemental information, is incorporated herein by reference]. […] After washing to remove the unbound Cy5-PDS and BMVC, the fluorescence intensities of Cy5-PDS bound to DNA oligonucleotides were detected using a fluorescence scanner. The binding selectivity of BMVC to different G4 structures was assessed by measuring the relative fluorescence intensity reduction of Cy5-PDS as BMVC concentration increased. […]

The subject of data set [2] is genomic G4 sequences (folded G4 structures). Kind of data set: G4 microarray binding in potassium vs lithium. Set-up: species or system human. The settings on record: GST-tagged proteins. The protocol:
The binding specificities of several molecules were evaluated. Microarrays were preincubated with 100 mM potassium chloride to induce G4 formation. Binding of each molecule is measured by detection of fluorescence intensity at each of the microarray features. BG4 and pyridostatin were conjugated with Cy5. Cellular proteins were expressed as chimeric proteins containing GST, and binding for these proteins was detected using an anti-GST antibody conjugated with Cy5 (Materials and Methods). G4 Structures Fold on DNA Microarrays. To evaluate the utility of DNA microarrays to examine G4-binding specificity, a Cy5-labeled pyridostatin (Cy5-PDS), a small molecule known to bind broadly to G4 structures, was synthesized.^13 A Cy5 conjugated version of BG4 (Cy5-BG4), an antibody developed to bind G4s, was also obtained.^31 FIG. 1A, B presents replicate binding intensities to 15,491 DNA sequences on the Design 3 microarray using either Cy5-PDS or Cy5-BG4. For Cy5-PDS, robust binding is observed at 1 μM, with fluorescence intensities ranging over 100-fold between strongest and weakest bound DNA features. The fluorescence-binding intensities of Cy5-PDS are proportional to the concentration of pyridostatin used). […] Antibody binding to non-G4 features increases with higher concentrations, and in some cases non-G4 sequences are more strongly bound by Cy5-BG4 than G4 sequences, including multiple cytosine-rich negative control sequences. Inhibition of G4 Formation Inhibits Cy5-PDS and Cy5-BG4 Binding. Cy5-PDS and Cy5-BG4 binding under conditions that inhibit G4 formation was examined to evaluate if G4 structures form on the microarray and are required for binding. […] It is noted that many sequences, in addition to the oncogene G4 sequences, are capable of forming G4s. […] For Cy5-BG4, the decrease in binding was up to 270-fold for genomic G4 sequences, while binding to negative controls decreased up to 23-fold (FIG. 1D,). In a second experiment, Cy5-PDS binding following a primer extension reaction that produces dsDNA^24 was examined (see Materials and Methods), anticipating that dsDNA would predominate over G4 formation^13. […] 2,27,28
as §1
Protein or molecule-bound microarrays were scanned with the G5761A SureScan Dx Microarray Scanner System (Agilent) to detect a Cy5 signal at two laser settings (30 and 100 PMT) to ensure signal intensities were below saturation. Spot intensities from microarray images were extracted using the Agilent Feature Extraction Software and are reported as raw fluorescence units. All binding assays were performed at least twice, with high agreement between replicates (R>0.8). Microarrays with the fewest number of saturated spots were used for further analysis. Median intensity was then computed for probes containing identical sequence on each microarray. […]

The test system of data set [3] is G4 sequences and non-G4 ssDNA controls on Design 3 microarray. The data set is described as follows: Custom G4 DNA microarray, direct binding by fluorescence intensity. Set-up: species or system human. From the text: Three Agilent DNA microarrays (TABLE 1) were designed, each with four identical sectors that contain ca.177,440 ssDNA 60-mers to examine G4-binding specificity. Arrays were designed with 9-73 replicates of each unique sequence to ensure statistical significance (TABLE 1). Each microarray contains different sets of G4 variants designed to examine several sequence parameters that affect G4 formation and binding specificity such as loop length (Design 1), loop sequence (Design 2), tail sequence (Design 2), and single nucleotide variants of six known G4s (Design 3). All microarrays include a set of 19 sequences from human telomeres and oncogene promoters known to form G4s with various topologies as positive controls (TABLE 2). Designs 2 and 3 have a set of 295 additional G4-forming sequences from the literature.^30 For the loop length variants, the length of the tails and loops of four different MYC G4 sequences (MYC Pu27, MYC Pu18ntd, MYC Pu22, and MYC Pu22 NMR mutant) was increased up to five times their length. Loop and tail sequences were varied using A, T, G, and C polynucleotide stretches and a subset of combinations. For the loop sequence variants, 4,096 sequences of the form NGGGNGGGNNGGGNGGGN (SEQ ID NO: 2) and 64 variants of the form GGGNGGGNGGGNGGG (SEQ ID NO: 1) were generated. For the tail variants, 256 versions of the major MYC G4 with all possible dinucleotide tails ([…] (SEQ ID NO: 3)) were generated. […]
The binding specificities of several molecules were evaluated. […] Binding of each molecule is measured by detection of fluorescence intensity at each of the microarray features. […] Cellular proteins were expressed as chimeric proteins containing GST, and binding for these proteins was detected using an anti-GST antibody conjugated with Cy5 (Materials and Methods). […] For Cy5-PDS, robust binding is observed at 1 μM, with fluorescence intensities ranging over 100-fold between strongest and weakest bound DNA features. The fluorescence-binding intensities of Cy5-PDS are proportional to the concentration of pyridostatin used). […]

Another data set deals with human telomeric G4s. Kind of data set: G4 microarray direct binding to telomeric G4s. Conditions: GST-tagged helicases. The protocol:
as §1
Protein or molecule-bound microarrays were scanned with the G5761A SureScan Dx Microarray Scanner System (Agilent) to detect a Cy5 signal at two laser settings (30 and 100 PMT) to ensure signal intensities were below saturation. Spot intensities from microarray images were extracted using the Agilent Feature Extraction Software and are reported as raw fluorescence units. […] The measured array data (Design 3, PDS) and predictions were normalized using the following
DNA Microarray Binding Experiments DNA microarray experiments were performed and analyzed as described previously. […]

For `NCCOc1cc(C(=O)Nc2cc(OCCN)c3ccccc3n2)nc(C(=O)Nc2cc(OCCN)c3ccccc3n2)c1` [pyridostatin], in data set [1] (1 μM Cy5-PDS, various concentrations of unlabeled competitor), the “effect of unlabeled competitor on Cy5-PDS binding” value is “no change in binding specificity”. The “binding selectivity profile to different G4 sequences” value in data set [1] (1 μM unlabeled ligand and 1 μM Cy5-PDS) was “bind less selectively”.

Turning to “IGF2: GST-tagged human insulin-like growth factor II, full length ORF”, in data set [2], the “effect of lithium chloride (inhibiting G4 formation) on protein binding” value is recorded as “weakened binding”. The “binding specificity, G4 vs non-G4 ssDNA sequences” value in data set [3] was “bind only G4 sequences”.

Turning to “BLM: GST-tagged human Bloom's syndrome protein helicase”, the “effect of lithium chloride (inhibiting G4 formation) on protein binding” value in data set [2] is “weakened binding”. For the same molecule, in the data set on human telomeric G4s, the “binding to hTelomeric (hyb-2 G4) and hTelomeric1 (hyb-1 G4) sequences” value was “specifically binds the wt hTelomeric sequence that forms hyb-2 G4”.

Regarding “CNBP: GST-tagged human cellular nucleic acid binding protein”, the “effect of lithium chloride (inhibiting G4 formation) on protein binding” value in data set [2] is recorded as “does not inhibit DNA binding”.

“WRN: GST-tagged human Werner syndrome RecQ like helicase”: in data set [2], the “effect of lithium chloride (inhibiting G4 formation) on protein binding” value was “weakened binding”. The “binding to hTelomeric (hyb-2 G4) and hTelomeric1 (hyb-1 G4) sequences” value in the data set with human telomeric G4s was “can bind both hTelomeric (hyb-2 G4) and hTelomeric1 (hyb-1 G4) sequences”.

B1: PIF1: GST-tagged human PIF1 helicase (protein, listed as Homo sapiens)
chain: MLSGIEAAAGEYEDSELRCRVAVEELSPGGQPRRRQALRTAELSLGRNERRELMLRLQAPGPAGRPRCFPLRAARLFTRFAEAGRSTLRLPAHDTPGAGAVQLLLSDCPPDRLRRFLRTLRLKLAAAPGPGPASARAQLLGPRPRDFVTISPVQPEERRLRAATRVPDTTLVKRPVEPQAGAEPSTEAPRWPLPVKRLSLPSTKPQLSEEQAAVLRAVLKGQSIFFTGSAGTGKSYLLKRILGSLPPTGTVATASTGVAACHIGGTTLHAFAGIGSGQAPLAQCVALAQRPGVRQGWLNCQRLVIDEISMVEADLFDKLEAVARAVRQQNKPFGGIQLIICGDFLQLPPVTKGSQPPRFCFQSKSWKRCVPVTLELTKVWRQADQTFISLLQAVRLGRCSDEVTRQLQATASHKVGRDGIVATRLCTHQDDVALTNERRLQELPGKVHRFEAMDSNPELASTLDAQCPVSQLLQLKLGAQVMLVKNLSVSRGLVNGARGVVVGFEAEGRGLPQVRFLCGVTEVIHADRWTVQATGGQLLSRQQLPLQLAWAMSIHKSQGMTLDCVEISLGRVFASGQAYVALSRARSLQGLRVLDFDPMAVRCDPRVLHFYATLRRGRSLSLESPDDDEAASDQENMDPIL
modifications: GST tag
notes: GST-tagged human PIF1 helicase
On to B1, for which, in data set [2], the “effect of lithium chloride (inhibiting G4 formation) on protein binding” value is “does not inhibit DNA binding”.
